Patent US20040053972A1, “Medicinal compositions having improved absorbability” (priority 2000, published 2004)

Tests used:
HER2 = target: T1, HER2 (Homo sapiens, UniProt P04626); assay: Inhibition of phosphorylation of receptor tyrosine (HER2) in human breast cancer cells MCF-7; type: cell-based; settings: MCF-7 cells, test compound 2 hours, then heregulin 0.8 μg/mL for 5 minutes
T1 construct: amount of phosphorylation of HER2 tyrosine of the cells; endogenous in cells; host or cells: MCF-7 human breast cancer cell line
T1 sequence (P04626 23-1255): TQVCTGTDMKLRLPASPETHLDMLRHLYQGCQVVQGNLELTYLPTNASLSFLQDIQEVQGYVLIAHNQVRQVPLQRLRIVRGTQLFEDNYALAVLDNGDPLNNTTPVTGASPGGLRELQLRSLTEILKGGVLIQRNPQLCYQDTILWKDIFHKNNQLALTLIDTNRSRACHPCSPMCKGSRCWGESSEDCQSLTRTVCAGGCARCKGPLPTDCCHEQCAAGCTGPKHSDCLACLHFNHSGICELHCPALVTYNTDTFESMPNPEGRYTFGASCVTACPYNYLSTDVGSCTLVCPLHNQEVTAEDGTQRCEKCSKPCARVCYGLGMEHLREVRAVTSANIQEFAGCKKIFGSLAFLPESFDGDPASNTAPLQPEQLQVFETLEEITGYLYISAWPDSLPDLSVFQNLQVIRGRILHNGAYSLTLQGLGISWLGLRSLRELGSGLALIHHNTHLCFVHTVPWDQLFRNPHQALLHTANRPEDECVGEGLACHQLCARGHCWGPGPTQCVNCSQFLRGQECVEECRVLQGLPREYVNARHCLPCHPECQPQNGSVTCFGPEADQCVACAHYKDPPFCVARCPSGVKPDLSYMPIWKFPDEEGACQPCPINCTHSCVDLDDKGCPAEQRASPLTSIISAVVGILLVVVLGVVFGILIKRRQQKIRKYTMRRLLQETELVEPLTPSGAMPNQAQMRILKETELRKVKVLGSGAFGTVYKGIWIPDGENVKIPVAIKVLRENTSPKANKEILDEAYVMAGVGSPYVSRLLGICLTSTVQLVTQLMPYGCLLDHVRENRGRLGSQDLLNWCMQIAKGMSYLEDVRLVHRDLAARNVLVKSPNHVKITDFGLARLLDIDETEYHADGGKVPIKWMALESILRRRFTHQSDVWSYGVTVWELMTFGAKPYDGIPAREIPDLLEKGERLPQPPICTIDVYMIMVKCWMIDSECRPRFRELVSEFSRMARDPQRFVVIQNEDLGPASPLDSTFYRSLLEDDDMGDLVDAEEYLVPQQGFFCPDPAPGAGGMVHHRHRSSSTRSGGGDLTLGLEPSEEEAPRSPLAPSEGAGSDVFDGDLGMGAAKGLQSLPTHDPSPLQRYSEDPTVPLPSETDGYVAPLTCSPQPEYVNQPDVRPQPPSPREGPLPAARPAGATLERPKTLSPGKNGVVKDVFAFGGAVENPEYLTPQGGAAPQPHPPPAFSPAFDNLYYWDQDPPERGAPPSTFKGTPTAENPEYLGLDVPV
Protocol: Inhibition of Phosphorylation of Receptor Tyrosine in Human Breast Cancer Cells
In each well of a 24-well plate, 500 μl of the cell suspension ([…]) of human breast cancer cell line MCF-7 was seeded and incubated at 37° C. in a 5% carbon dioxide gas incubator. On the next day, 250 μl of a 4-fold serial dilution of a solution of a test compound was added to each well and, 2 hours later, 250 μl of a heregulin solution, which was adjusted so as to be the final concentration of 0.8 μg/mL, was added thereto. After 5 minutes, an extracting solution was added thereto to terminate the reaction as well as to extract a protein. The protein was fractionated by protein electrophoresis and the protein in the electrophoretic gel was transferred to a nylon filter. The filter was reacted with a phosphorylated tyrosine-specific antibody. The reaction product was fluorescence-labeled and was exposed to a photo-film. The intensity of the exposure on the photo-film was quantitated by an image-analyzing apparatus.

[1] = system: human breast cancer cell line BT-474; assay: In vitro inhibition of growth of breast cancer cell BT-474; type: cell-based; settings: 120 h, BT-474 cells, heregulin, cultured for 5 days, SRB staining
Protocol: In vitro Inhibition of Growth of Breast Cancer Cell BT-474
In each well of a 96-well microtiter plate, 100 μl (containing 1,000 cells) of a cell suspension of human breast cancer cell line BT-474 was seeded and incubated at 37° C. in a 5% carbon dioxide gas incubator. On the next day, 100 μl of the 2-fold serial dilution of a solution of each test compound prepared by using 250 μl of a heregulin solution, which was adjusted so as to be the final concentration of 0.8 μg/mL, was added to each well and cultured for 5 days. The solution containing the test compound was removed and the cells were washed and fixed with a 50% trichloroacetic acid solution. To the cells was added a 0.4% (W/V) solution of pigment SRB (dissolved in 1% acetic acid) to fix as well as stain the cell protein (Skehan P. et al., Journal of the National Cancer Institute Vol. 82, pp. 1107-1112, 1990). The pigment solution was removed and the remainder was washed with a 1% acetic acid solution. Then, 100 μl of an extracting solution (10 mM Tris buffer) was added thereto to extract the pigment. The optical density of the extract at the wavelength of 550 nm was measured to determine the amount of the cells in terms of the amount of the protein. The proportion of the amount of remaining protein of each treated group was determined by taking the amount of protein of the control to which no solution of a test compound was added as 100% to calculate the value of the concentration of the compound required for inhibiting the remaining cells by 50% of that of the control (IC50)

[2] = system: Human breast cancer cell line BT-474; assay: In vivo breast cancer inhibiting effect (BT-474 implanted in nude mice); settings: nude mice with BT-474 tumors, orally twice daily 30 mg/kg body weight for 10 days
Protocol: In Vivo Breast Cancer Inhibiting Effect
Human breast cancer cell line BT-474 (5,000,000 cells) were suspended in a gel-matrix solution. The suspension was subcutaneously implanted in the breast of 6-week-old female Balb/C strain nude mice (Friedman R. et al., Proceedings of the National Academy of Sciences of the U.S.A. Vol. 87, pp. 6698-6702, 1990). At the time of the implantation and seven days after the implantation, an estradiol dipropionate solution (5 mg/mL) was intramuscularly administered to the hind leg for the purpose of enhancing a take ratio of tumors. Fourteen days after the implantation, the diameters of tumors were determined. For the experiment were used 5 mice per group with similar tumor size. Each of compounds (4, 6, 14, 17, 19, 20, 23, 24 and 26) of the present invention was suspended in a 5% gum arabic solution (physiological saline) and administered orally twice daily in dose of 30 mg/kg body weight for 10 days. On the day when the administration was terminated, the diameters of tumors were measured. Tumor volume was calculated by the following equation.
Volume of tumor=longest diameter×shortest diameter×shortest diameter×½
The growth rate of tumors was calculated as the proportion of the value obtained by subtracting the initial volume from the final volume in the group to which the drug was administered, to the value obtained by subtracting the initial volume from the final volume in the control group to which a gum arabic solution was administered.

[3] = Measurement of size of crystalline particulate (laser diffraction/scattering); type: physicochemical; settings: distilled water as dispersion medium, SALD-2000A
Protocol: The average particle size can be measured by using a per se known method and a measuring equipment. The term “average particle size” refers to a volume-average particle size as measured, for example, by a laser diffraction/scattering particle size distribution measuring apparatus (for example, SALD-2000A manufactured by Shimadzu Corporation). The particle size is usually measured by uniformly dispersing a HER2 inhibitor suspension at a concentration of about 1 to 100 μg/ml at room temperature while being subjected to ultra-sonication for a short period of time such as within 1 minute, or while stirring using a vortex mixer. The aqueous solvent used in the measurement is usually water, but buffer solutions having various pH's, a pseudo-body fluid and 0.5% methyl cellulose solution may be used. […]
The size of fine particles in the suspension of the drug of crystalline particulate obtained in Example 1 was measured. […] Further, the size of particles obtained by comminuting bulk of the compound of Reference Example B4, which was used in Example 1, with a jet mill was measured in the same manner.
The size of fine particles in the suspension of the drug of crystalline particulate obtained in Example 4a was measured. […] Further, crystalline particulate obtained in Example 8a were dispersed again in distilled water and the size of fine particles of the drug was measured in the same manner.

FC(F)(F)c1ccc(/C=C/c2nc(COc3ccc(CCCCn4ccnn4)cc3)co2)cc1 [Reference Example B4, 1-(4-{4-[(2-{(E)-2-[4-(Trifluoromethyl)phenyl]ethenyl}-1,3-oxazol-4-yl)methoxy]phenyl}butyl)-1H-1,2,3-triazole]
IC50 (HER2): 0.1 µM | IC50 [1]: < 0.05 µM | Inhibition ratio (%) [2]: 5% | Average particle size (μm) [3]: ≤ 4 μm | Average particle size (μm) ([3]; listed as Reference Example 4B): 3.85 μm
